Patent US20230272077A1, “PD-1 SIGNAL INHIBITOR COMBINATION THERAPY” (KYOTO UNIVERSITY, priority 2015, published 2023)
Entries after “also recorded” stand apart in the source; their conditions may differ.

What was measured:
[1] = system: MC38; experiment: Mouse therapy model, MC38-bearing mice (tumor volume, survival); type: in vivo
Experimental: MC38 (5×10^5) and MethA (5×10^5) cells were intradermally injected on the right flank. MC38 was inoculated into C57BL/6 mice and MethA was inoculated into BALB/c mice. For monotherapy, mice were intraperitoneally injected with 150 μg of PD-L1 mouse antibody (1-111A) (prepared by the laboratory of the present inventors) 5 days after the tumor inoculation. Therapy with PD-L1 antibody alone was repeated three times every 5 days. For combination therapy, administration of PD-L1 antibody and chemical agents started 7 days after tumor injection. Chemical agents were injected at a regular interval of 2 days and PD-L1 antibody at a regular interval of 5 days (shown in FIG. 3b). Tumors were measured on every alternate day, and tumor volumes were calculated using the formula for typical ellipsoid, π×(length×breadth×height/6).
The following chemical reagents were used at the indicated concentrations for combination therapy. AMPK activator: A769662, 6 mg/kg (Abcam); mTOR activator: MHY1485, 3 μg/kg (Sigma-Aldrich); uncoupler: carbonylcyanide-p-trifluoromethoxyphenylhydrazone (FCCP), 1.2 mg/kg (Abcam); uncoupler: 2,4-Dinitrophenol (DNP), 1.7 mg/kg (Aldrich); SIRT1 activator: resveratrol, 0.5 mg/kg (Abcam); ROS scavenger: Mn (III) tetrakis (4-benzoic acid) porphyrin (MnTBAP), 1.25 mg/kg (Calbiochem); ROS generator: tert-butyl hydroperoxide solution (Luperox TBH70X), 200 μL/kg (Sigma-Aldrich); ATP synthase inhibitor: oligomycin, 250 μg/kg (Sigma-Aldrich); paraquat 2 mg/kg (Nakalai Tesque); oltipraz 1.9 mg/kg (Sigma); bezafibrate 1 mg/kg (ChemCruz).
All reagents were freshly prepared just before use. Each reagent was dissolved in the solvent indicated in the instructions. Note that the AMPK activator, mTOR activator, uncouplers and SIRT1 activator were prepared from fresh unused vials in each series of experiments. Dissolved reagents were diluted in PBS, and a 200 l aliquot was injected per mouse.
Murine colon adenocarcinoma MC38 cells (5×10^5) were inoculated into C57BL/6 mice. After 7 days, anti-PD-L1 antibody (1-111A, 150 μg) and AMPK inhibitor (Compound C: 200 μg in BBS, 200 μL) were administered intraperitoneally. Anti-PD-L1 antibody was administered 3 times at a regular interval of 6 days; Compound C (C.C) was administered 7 times at a regular interval 2 days.
MC38 cells (5×10^5) were inoculated into C57BL/6 mice. After 7 days, anti-PD-L1 antibody (1-111A, 150 μg) and PGC-1α/transcription factor complex activator (2-(4-{2-[(4-chlorobenzoyl)amino]ethyl}phenoxy)-2-methylpropanoic acid (bezafibrate): 10 ug in PBS, 200 ul) were administered intraperitoneally. Anti-PD-L1 antibody was administered 3 times at a regular interval of 6 days; bezafibrate was administered 7 times at a regular interval 2 days.

[2] = system: AMPK and its associated proteins ACC and SIRT1; experiment: Western blotting of DLN CD8+ T cells, AMPK pathway; type: in vivo, mouse; details: CD8+ T cells from mice treated with PD-L1 antibody and reagent
Experimental: FIG. 7. […] Phosphorylation of AMPK, ACC, mTOR and S6K and the expression of SIRT1 and 4EBP1 were analyzed by Western blotting. b) MC38-bearing mice were treated with PD-L1 antibody in combination with AMPK activator (A769662) and/or mTOR activator (MHY1485) according to the same schedule as shown in FIG. 3b.
CD8^+ T cells were isolated using mouse CD8 Microbeads (Miltenyi Biotec). After washing with PBS twice, 2×10^6 cells were solubilized in a lysis buffer containing 30 mM Tris-HCl (pH.7.4), 150 mM NaCl, 10% glycerol, 0.1% SDS, 1% Triton-X-100, 0.05% Na-Doc, 5 mM EDTA (pH.8.0), protease inhibitor mixture (Roche Molecular Biochemicals) and phosphatase inhibitors (Nacalai Tesque). After measurement of protein concentrations by DC protein assay (Bio-Rad), 4 μg of proteins was mounted on 4 to 20% gradient Mini-PROTEAN TGX Gels (Bio-Rad) and electroblotted onto nitrocellulose membranes, which were then incubated in a blocking buffer of TBS containing 1% BSA. Primary antibody incubations were carried out overnight at 4° C. in blocking buffer. After washing, secondary antibody incubations were carried out at room temperature for 40 min in blocking buffer. Blots were developed with enhanced chemiluminescence (Amersham Pharmacia). […]

[3] = system: tumor cells; experiment: Phenotypic and transcription profile analysis of tumor cells from mice treated with reagent alone; parameters: species or system mouse; details: tumor cells from mice treated with reagent alone in vivo
Description: FIG. 12. […] After enzymatic digestion, tumor cells were sorted with a cell isolation kit capable of excluding non-tumor cells. The isolated tumor cells were further purified with Aria and used in the following experiments. b) Tumor cells were stained with antibodies targeting PD-L1, MHC class I, CD155 (ligand of TIGIT), and VISTA or with dyes for mitochondrial mass, membrane potential, and superoxide. c) Expression levels of genes associated with mitochondrial energy metabolism and apoptosis were examined using RT^2 profiler PCR Kit.
For analyzing draining lymph nodes, cells from axillary, brachial, and inguinal lymph nodes on the right side of tumor-inoculated mice were harvested and mixed. Averaged cell numbers per one lymph node were used as absolute cell numbers. For tumor analysis, tumor tissues were minced into 2- to 3-mm pieces with scissors and digested with collagenase type IV (Thermo Fisher Scientific) using a gentle MACS Dissociator (Miltenyi Biotec). The numbers of tumor cells per mg were used as absolute numbers. Tumor cells were isolated from digested tumor tissues using a Tumor Cell Isolation Kit, mouse (Miltenyi Biotec). This kit purifies tumor cells by excluding lymphocytes, red blood cells, fibroblasts, endothelial cells and tumor-associated stromal cells. The resultant tumor cell population was further isolated/purified with FACS Aria (BD Biosciences). […]

N#CC(C#N)=NNc1ccc(OC(F)(F)F)cc1 [FCCP, carbonyl cyanide p-trifluoromethoxyphenylhydrazone]
antitumor effect when administered alone ([1]; MC38-bearing mice, reagent alone, no PD-L1 antibody, tumor volume): failed to exhibit any antitumor effect | enhancement of antitumor effect of PD-L1 antibody (tumor volume) ([1]; MC38-bearing mice, reagent combined with PD-L1 antibody vs PD-L1 antibody alone): augmented the efficacy of PD-L1 antibody therapy; also recorded: enhance the antitumor effect of PD-L1 antibody | survival rate ([1]; mouse, in vivo): remarkably improved the survival rate | activation of AMPK and its associated proteins ACC and SIRT1 [2]: activated | changes in immune-regulatory surface markers and transcriptional profiles of tumor cells [3]: did not show a significant difference; also recorded: little effect on tumor cells in vivo
